Laboratory results from PubChem BioAssay (NCI).
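How tested: cells in 96-well plates exposed to compound for 48 hours at five concentrations. TGI denotes the concentration required for complete inhibition of growth.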

Key:
Experiment in all cases: NCI anticancer screen, dose series, 48 h
[1] = test system: HCC-2998 colon
[2] = test system: 786-0 renal
[3] = test system: OVCAR-3 ovarian
[4] = test system: LXFL 529 NSCLC
[5] = test system: NCI-H226 lung
[6] = test system: CAKI-1 renal
[7] = test system: TK-10 renal
[8] = test system: M14 melanoma
[9] = test system: NCI-H23 lung
[10] = test system: SK-MEL-28 melanoma
[11] = test system: RXF-631 renal
[12] = test system: CCRF-CEM leukemia
[13] = test system: SK-MEL-5 melanoma
[14] = test system: UACC-257 melanoma
[15] = test system: SF-268 CNS
[16] = test system: EKVX NSCLC
[17] = test system: DMS 273 small cell lung
[18] = test system: SNB-19 CNS
[19] = test system: HOP-62 NSCLC
[20] = test system: UACC-62 melanoma
[21] = test system: A549 NSCLC
[22] = test system: SK-OV-3 ovarian
[23] = test system: HCT-116 colon
[24] = test system: UO-31 renal
[25] = test system: U251 CNS
[26] = test system: MALME-3M melanoma
[27] = test system: SF-539 CNS
[28] = test system: A498 renal
[29] = test system: DLD-1 colon
[30] = test system: HL-60(TB) leukemia
[31] = test system: SN12C renal
[32] = test system: IGROV1 ovarian
[33] = test system: RXF 393 renal
[34] = test system: M19-MEL melanoma
[35] = test system: RPMI-8226 leukemia
[36] = test system: HOP-18 NSCLC
[37] = test system: HOP-92 NSCLC
[38] = test system: COLO 205 colon
[39] = test system: OVCAR-4 ovarian
[40] = test system: K-562 leukemia
[41] = test system: NCI-H522 lung
[42] = test system: KM12 colon
[43] = test system: NCI-H460 lung
[44] = test system: OVCAR-8 ovarian
[45] = test system: SW-620 colon
[46] = test system: XF 498 CNS
[47] = test system: ACHN renal
[48] = test system: LOX IMVI melanoma
[49] = test system: SNB-75 CNS
[50] = test system: HT29 colon
[51] = test system: SF-295 CNS
[52] = test system: KM20L2 colon
[53] = test system: OVCAR-5 ovarian
[54] = test system: SNB-78 CNS
[55] = test system: DMS 114 small cell lung
[56] = test system: SK-MEL-2 melanoma
[57] = test system: MOLT-4 leukemia
[58] = test system: HCT-15 colon
[59] = test system: SR leukemia

C/C(=N\NC(=S)N1CCC(C2CCN(C(=S)N/N=C(\C)c3ccccn3)CC2)CC1)c1ccccn1
TGI [1]: > 100 µM
TGI [2]: > 100 µM
TGI [3]: > 100 µM
TGI [4]: > 100 µM
TGI [5]: > 100 µM
TGI [6]: > 100 µM
TGI [7]: > 100 µM
TGI [8]: > 100 µM
TGI [9]: > 100 µM
TGI [10]: > 100 µM
TGI [11]: > 100 µM
TGI [12]: > 100 µM
TGI [13]: > 100 µM
TGI [14]: > 100 µM
TGI [15]: > 100 µM
TGI [16]: > 100 µM
TGI [17]: > 100 µM
TGI [18]: > 100 µM
TGI [19]: > 100 µM
TGI [20]: > 100 µM
TGI [21]: > 100 µM
TGI [22]: > 100 µM
TGI [23]: > 100 µM
TGI [24]: > 100 µM
TGI [25]: > 100 µM
TGI [26]: > 100 µM
TGI [27]: > 100 µM
TGI [28]: > 100 µM
TGI [29]: > 100 µM
TGI [30]: > 100 µM
TGI [31]: > 100 µM
TGI [32]: > 100 µM
TGI [33]: > 100 µM
TGI [34]: > 100 µM
TGI [35]: > 100 µM
TGI [36]: > 100 µM
TGI [37]: > 100 µM
TGI [38]: > 100 µM
TGI [39]: > 100 µM
TGI [40]: > 100 µM
TGI [41]: > 100 µM
TGI [42]: > 100 µM
TGI [43]: > 100 µM
TGI [44]: > 100 µM
TGI [45]: > 100 µM
TGI [46]: 86.5 µM
TGI [47]: > 100 µM
TGI [48]: > 100 µM
TGI [49]: 67.4 µM
TGI [50]: > 100 µM
TGI [51]: > 100 µM
TGI [52]: > 100 µM
TGI [53]: > 100 µM
TGI [54]: > 100 µM

Cc1cccc(N2C(=O)/C(=C/c3ccc(N(CCC#N)CCC#N)cc3C)N=C2c2cc([N+](=O)[O-])ccc2Cl)c1
TGI [1]: > 100 µM
TGI [2]: > 100 µM
TGI [3]: > 100 µM
TGI [4]: > 100 µM
TGI [5]: > 100 µM
TGI [6]: > 100 µM
TGI [7]: > 100 µM
TGI [8]: > 100 µM
TGI [9]: > 100 µM
TGI [10]: > 100 µM
TGI [11]: > 100 µM
TGI [12]: > 100 µM
TGI [13]: > 100 µM
TGI [14]: > 100 µM
TGI [15]: > 100 µM
TGI [16]: > 100 µM
TGI [17]: > 100 µM
TGI [18]: > 100 µM
TGI [19]: > 100 µM
TGI [20]: > 100 µM
TGI [21]: > 100 µM
TGI [22]: > 100 µM
TGI [23]: > 100 µM
TGI [24]: > 100 µM
TGI [25]: > 100 µM
TGI [26]: > 100 µM
TGI [27]: > 100 µM
TGI [55]: > 100 µM
TGI [28]: > 100 µM
TGI [29]: > 100 µM
TGI [30]: > 100 µM
TGI [31]: > 100 µM
TGI [32]: > 100 µM
TGI [34]: > 100 µM
TGI [35]: > 100 µM
TGI [36]: > 100 µM
TGI [37]: > 100 µM
TGI [56]: > 100 µM
TGI [38]: > 100 µM
TGI [39]: > 100 µM
TGI [40]: > 100 µM
TGI [41]: > 100 µM
TGI [42]: > 100 µM
TGI [43]: > 100 µM
TGI [44]: > 100 µM
TGI [57]: > 100 µM
TGI [45]: > 100 µM
TGI [47]: > 100 µM
TGI [49]: > 100 µM
TGI [50]: > 100 µM
TGI [51]: > 100 µM
TGI [58]: > 100 µM
TGI [59]: > 100 µM
TGI [53]: > 100 µM

COC(=O)C1CCC(=NC2c3ccccc3-c3ccccc32)N1 (configuration not stated)
TGI [1]: > 100 µM
TGI [2]: > 100 µM
TGI [3]: > 100 µM
TGI [4]: > 100 µM
TGI [5]: > 100 µM
TGI [6]: > 100 µM
TGI [7]: > 100 µM
TGI [8]: > 100 µM
TGI [9]: > 100 µM
TGI [10]: > 100 µM
TGI [11]: > 100 µM
TGI [12]: > 100 µM
TGI [14]: > 100 µM
TGI [15]: > 100 µM
TGI [16]: > 100 µM
TGI [17]: > 100 µM
TGI [18]: > 100 µM
TGI [19]: > 100 µM
TGI [20]: > 100 µM
TGI [21]: > 100 µM
TGI [22]: > 100 µM
TGI [23]: > 100 µM
TGI [24]: > 100 µM
TGI [25]: > 100 µM
TGI [26]: > 100 µM
TGI [55]: > 100 µM
TGI [28]: > 100 µM
TGI [29]: > 100 µM
TGI [30]: > 100 µM
TGI [31]: > 100 µM
TGI [32]: > 100 µM
TGI [34]: > 100 µM
TGI [35]: > 100 µM
TGI [36]: > 100 µM
TGI [37]: 76.6 µM
TGI [56]: > 100 µM
TGI [38]: > 100 µM
TGI [39]: > 100 µM
TGI [40]: > 100 µM
TGI [41]: 58.6 µM
TGI [42]: > 100 µM
TGI [43]: > 100 µM
TGI [44]: > 100 µM
TGI [57]: > 100 µM
TGI [45]: > 100 µM
TGI [46]: > 100 µM
TGI [47]: > 100 µM
TGI [49]: > 100 µM
TGI [50]: > 100 µM
TGI [51]: > 100 µM
TGI [58]: > 100 µM
TGI [52]: > 100 µM
TGI [53]: > 100 µM
TGI [54]: > 100 µM

CC(C)=C1CCC(CN2CCCC2)C1=O (configuration not stated)
TGI [1]: 34.6 µM
TGI [2]: 30.8 µM
TGI [3]: 31.3 µM
TGI [4]: 32.2 µM
TGI [5]: > 100 µM
TGI [6]: 28.9 µM
TGI [7]: > 100 µM
TGI [8]: 34.1 µM
TGI [9]: > 100 µM
TGI [10]: 48.8 µM
TGI [11]: > 100 µM
TGI [12]: 39 µM
TGI [13]: > 100 µM
TGI [14]: 66.7 µM
TGI [15]: 65.7 µM
TGI [16]: > 100 µM
TGI [17]: > 100 µM
TGI [18]: > 100 µM
TGI [19]: > 100 µM
TGI [20]: > 100 µM
TGI [21]: > 100 µM
TGI [23]: 31.6 µM
TGI [24]: 36.1 µM
TGI [26]: 37.2 µM
TGI [27]: > 100 µM
TGI [55]: 37 µM
TGI [28]: > 100 µM
TGI [29]: 33.7 µM
TGI [30]: 50.8 µM
TGI [31]: 33.1 µM
TGI [32]: > 100 µM
TGI [33]: 39.5 µM
TGI [34]: 37.4 µM
TGI [35]: 37.8 µM
TGI [36]: 32.7 µM
TGI [37]: 58.5 µM
TGI [56]: 77.2 µM
TGI [39]: 32.3 µM
TGI [40]: > 100 µM
TGI [42]: > 100 µM
TGI [43]: > 100 µM
TGI [44]: > 100 µM
TGI [57]: 44.3 µM
TGI [45]: 47.5 µM
TGI [46]: 34 µM
TGI [47]: 32.7 µM
TGI [48]: > 100 µM
TGI [49]: > 100 µM
TGI [50]: 53.5 µM
TGI [51]: > 100 µM
TGI [58]: 35.5 µM
TGI [59]: 35.9 µM
TGI [52]: > 100 µM
TGI [53]: > 100 µM
TGI [54]: > 100 µM
